# US8263606B2 (Xenon Pharmaceuticals Inc., priority 2008, dated 2012)
# How the values were obtained:
# CYP3A4 = CYP3A4 (Homo sapiens, UniProt P08684); experiment: Cytochrome P450 (CYP450) Inhibition Assay, CYP3A4 (Vivid fluorescence, BOMCC substrate); details: human, P450 Baculosomes (recombinant CYP3A4), probe BOMCC (Vivid substrate)
# sodium channel = experiment: Guanidine influx assay (14C-guanidine radiotracer flux, in vitro); format: cell-based, human or rat; details: guanidine influx assay using a known cell line that expresses a sodium channel
# Method in brief: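 Cells stably expressing human or rat sodium channels (~100,000/well, 20–24 h) were exposed in low-sodium choline buffer to test agent plus aconitine activator and 14C-guanidine at ambient temperature. Intracellular 14C-guanidine was counted by scintillation; IC50 fitted by 4-parameter logistic over half-dilutions around 1 μM.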
# Chain of CYP3A4 (P08684 whole entry): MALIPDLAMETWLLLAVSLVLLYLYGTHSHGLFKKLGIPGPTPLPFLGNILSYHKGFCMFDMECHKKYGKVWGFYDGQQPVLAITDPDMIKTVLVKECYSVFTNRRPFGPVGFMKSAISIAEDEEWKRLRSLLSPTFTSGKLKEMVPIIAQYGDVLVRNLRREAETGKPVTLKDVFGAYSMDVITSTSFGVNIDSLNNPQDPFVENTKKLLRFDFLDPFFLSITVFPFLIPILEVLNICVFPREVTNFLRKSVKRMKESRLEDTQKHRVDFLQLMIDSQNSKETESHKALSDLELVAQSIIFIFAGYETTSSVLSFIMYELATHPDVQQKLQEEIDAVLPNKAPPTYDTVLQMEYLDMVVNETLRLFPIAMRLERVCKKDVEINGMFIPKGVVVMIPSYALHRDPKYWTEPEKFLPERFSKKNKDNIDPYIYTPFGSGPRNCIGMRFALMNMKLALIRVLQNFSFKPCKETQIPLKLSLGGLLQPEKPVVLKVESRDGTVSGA
melting point [°C],inhibition at 10 µM (CYP3A4) [%],IC50 (sodium channel; activity level class) [µM],IC50 (sodium channel) [µM],Compound
73 to 74,> 50,,0.1 to 1,"CCCCCCN(C)C(=O)c1cccc(CN2C(=O)C3(COc4cc5c(cc43)CCO5)c3ccccc32)c1 (stereo not drawn) [Example 12.2, N-hexyl-N-methyl-3-[(2′-oxo-5,6-dihydrospiro[benzo[1,2-b:5,4-b′]difuran-3,3′-indol]-1′(2′H)-yl)methyl]benzamide]"
136 to 140,< 50,0.001 to 0.1,,"COC(=O)c1ccc(CN2C(=O)C3(COc4cc5c(cc43)CCO5)c3ccccc32)cc1 (stereo not drawn) [Example 9.16, methyl 4-[(2′-oxo-5,6-dihydrospiro[benzo[1,2-b:5,4-b′]difuran-3,3′-indol]-1′(2′H)-yl)methyl]benzoate]"
54 to 56,< 50,,0.1 to 1,"O=C1N(CCCO)c2ccccc2C12COc1cc3c(cc12)CCO3 (stereo not drawn) [Example 11.34, 1′-(3-hydroxypropyl)-5,6-dihydrospiro[benzo[1,2-b:5,4-b′]difuran-3,3′-indol]-2′(1′H)-one]"
96 to 99,> 50,,1 to 10,"CCCCN(C)CCCN1C(=O)C2(COc3cc4c(cc32)CCO4)c2ccccc21.Cl (stereo not drawn) [Example 15.2, 1′-{3-[butyl(methyl)amino]propyl}-5,6-dihydrospiro[benzo[1,2-b:5,4-b′]difuran-3,3′-indol]-2′(1′H)-one hydrochloride]"
37 to 38,< 50,0.001 to 0.1,,"O=C1N(CCCOCc2ccccc2)c2ccccc2C12COc1cc3c(cc12)OCCO3 (stereo not drawn) [Example 9.43, 1′-[3-(benzyloxy)propyl]-2,3-dihydrospiro[furo[2,3-g][1,4]-benzodioxine-8,3′-indol]-2′(1′H)-one]"
203 to 204,< 50,0.1 to 1,,"COc1ncc(CN2C(=O)C3(COc4cc5c(cc43)CCO5)c3ccccc32)cn1 (stereo not drawn) [Example 5, 1-[(2-methoxypyrimidin-5-yl)methyl]-5,6-dihydrospiro[benzo[1,2-b:5,4-b′]difuran-3,3′-indol]-2′(1′H)-one]"
198 to 199,< 50,1 to 10,,"O=C1N(C[C@@H]2COCCO2)c2ccccc2[C@@]12COc1cc3c(cc12)OCCO3 [Example 8.5, (8R)-1′-[(2R)-1,4-dioxan-2-ylmethyl]-2,3-dihydrospiro[furo[2,3-g][1,4]benzodioxine-8,3′-indol]-2′(1′H)-one]"

# The remaining lines, values behind:
Compound,melting point [°C],inhibition at 10 µM (CYP3A4) [%],IC50 (sodium channel; activity level class) [µM],IC50 (sodium channel) [µM]
"O=C1N(C[C@H]2CCCO2)c2cccc(Br)c2C12COc1cc3c(cc12)CCO3 (stereo partly drawn) [Example 4.35, 4′-bromo-1′-[(2R)-tetrahydrofuran-2-ylmethyl]-5,6-dihydrospiro[benzo[1,2-b:5,4-b′]difuran-3,3′-indol]-2′(1′H)-one]",137 to 141,> 50,0.001 to 0.1,
"COc1ccc(CN2C(=O)C3(COc4cc5c(cc43)OCCO5)c3ccccc32)cc1OC (stereo not drawn) [Example 4.46, 1′-(3,4-dimethoxybenzyl)-2,3-dihydrospiro[furo[2,3-g][1,4]benzodioxine-8,3′-indol]-2′(1′H)-one]",209 to 211,> 50,0.001 to 0.1,
"O=C(NC1CCC1)c1ccc(CN2C(=O)C3(COc4cc5c(cc43)CCO5)c3ccccc32)cc1 (stereo not drawn) [Example 12.42, N-cyclobutyl-4-[(2-oxo-5,6-dihydrospiro[benzo[1,2-b:5,4-b′]difuran-3,3-indol]-1(2H)-yl)methyl]benzamide]",> 250,> 50,,0.1 to 1
"O=C1N(Cc2ccccc2C(F)(F)F)c2ccccc2C12COc1cc3c(cc12)OCCO3 (stereo not drawn) [Example 4.113, 1′-[2-(trifluoromethyl)benzyl]-2,3-dihydrospiro[furo[2,3-g][1,4]benzodioxine-8,3′-indol]-2′(1′H)-one]",207 to 208,< 50,0.001 to 0.1,
"COc1cc2c(cc1C)[C@]1(CO2)C(=O)Nc2ccccc21 [Example 3.26, (3R)-6-methoxy-5-methylspiro[1-benzofuran-3,3′-indol]-2′(1′H)-one]",> 250,> 50,1 to 10,
"Cc1cccc(NC(=O)c2ccccc2CN2C(=O)C3(COc4cc5c(cc43)CCO5)c3ccccc32)c1 (stereo not drawn) [Example 12.19, N-(3-methylphenyl)-2-[(2′-oxo-5,6-dihydrospiro[benzo[1,2-b:5,4-b′]difuran-3,3′-indol]-1′(2′H)-yl)methyl]benzamide]",229 to 231,> 50,,1 to 10
"O=C1N(C[C@H]2CCCO2)c2ccccc2C12COc1cc(O)ccc12 (stereo partly drawn) [Example 11.53, 6-hydroxy-1′-[(2R)-tetrahydrofuran-2-ylmethyl]spiro[1-benzofuran-3,3′-indol]-2′(1′H)-one]",72 to 74,< 50,,0.1 to 1
"N#Cc1cc2c(cc1F)OCC21C(=O)N(Cc2ccccn2)c2ccccc21 (stereo not drawn) [Example 9.48, 6-fluoro-2′-oxo-1′-(pyridin-2-ylmethyl)-1′,2′-dihydrospiro[1-benzofuran-3,3′-indole]-5-carbonitrile]",108 to 109,> 50,1 to 10,
"COc1ccc(CN2C(=O)C3(COc4cc5c(cc43)CCO5)c3c2ccc2ncccc32)cc1 (stereo not drawn) [Example 2.38, 3′-(4-methoxybenzyl)-5,6-dihydrospiro[benzo[1,2-b:5,4-b′]difuran-3,1′-pyrrolo[3,2-f]quinolin]-2′(3′H)-one]",169 to 170,> 50,0.1 to 1,
"O=C1Nc2ccccc2C12COc1cc3c(cc12)CCCC3 (stereo not drawn) [Example 3.45, 5′,6′,7′,8′-tetrahydrospiro[indole-3,3′-naphtho[2,3-b]furan]-2(1′H)-one]",> 230,> 50,1 to 10,
"O=C1N(C(c2ccccc2)c2ccccc2)c2ccccc2C12COc1ccc(F)cc12 (stereo not drawn) [Example 2.9, 1′-(diphenylmethyl)-5-fluorospiro[1-benzofuran-3,3′-indol]-2′(1′H)-one]",182 to 184,< 50,1 to 10,
"O=C1N(Cc2ccccn2)c2ccc3ncsc3c2C12COc1cc3c(cc12)OCCO3 (stereo not drawn) [Example 9.72, 6′-(pyridin-2-ylmethyl)-2,3-dihydrospiro[furo[2,3-g][1,4]-benzodioxine-8,8′-[1,3]thiazolo[5,4-e]indol]-7′(6′H)-one]",156 to 158,> 50,,0.1 to 1
"Cc1cc2c(cc1C)C1(CO2)C(=O)Nc2ccccc21 (stereo not drawn) [Example 3.3, 5,6-dimethylspiro[1-benzofuran-3,3′-indol]-2′(1′H)-one]",206 to 207,> 50,0.1 to 1,
"O=C1N(Cc2ccc(F)cn2)c2ccccc2[C@]12COc1cc3c(cc12)OCCO3 [Example 4.107, (8S)-1′-[(5-fluoropyridin-2-yl)methyl]-2,3-dihydrospiro[furo[2,3-g][1,4]benzodioxine-8,3′-indol]-2′(1′H)-one]",210 to 212,< 50,0.001 to 0.1,
